The source of these data is US20230051589A1, “COMPOUNDS AND COMPOSITIONS FOR TREATING CONDITIONS ASSOCIATED WITH NLRP ACTIVITY” (Novartis AG, priority 2018, published 2023).

The test system of the first assay is IL-1β production in hTHP-1 cells. Put plainly: hTHP-1 assay containing 10% fetal bovine serum. The following applies: Homo sapiens, read-out: hTHP-1 IC50 in 10% FBS, hTHP-1 assay containing 10% fetal bovine serum, Table B4. It is filed as cell-based, human. Here is the method: inhibition=100-100×[HCave−Readout/(HCave−LCave)] • 2. Fit the normalized data in a dose-response manner using XLfit, and calculate the compound concentration. Tables B1, B2, and B3 show the biological activity of compounds in hTHP-1 assay containing 2% fetal bovine serum. […] Key: <0.008 μM=“++++++”; ≥0.008 and <0.04 μM=“+++++”; ≥0.04 and <0.2 μM=“++++”; ≥0.2 and <1 μM=“+++”; ≥1 and <5 μM=“++”; ≥5 and <30 μM=“+”.
What is called IC50 is the midpoint of a concentration-inhibition curve. With `CC(C)(O)c1csc(S(N)(=O)=NC(=O)Nc2c3c(cc4c2CCC4)CCC3)c1F` (stereo not drawn) [Example 878, 3-Fluoro-N′-((1,2,3,5,6,7-hexahydro-s-indacen-4-yl)carbamoyl)-4-(2-hydroxypropan-2-yl)thiophene-2-sulfonimidamide], the IC50 was 40 to 200 nM.

For the compound `CC(C)(O)c1csc(S(N)(=O)=NC(=O)Nc2c3c(cc4c2CC4)CCC3)c1F` (stereo not drawn) [Example 879, 3-Fluoro-4-(2-hydroxypropan-2-yl)-N′-((2,4,5,6-tetrahydro-1H-cyclobuta[f]inden-3-yl)carbamoyl)thiophene-2-sulfonimidamide], the IC50 was 40 to 200 nM.

Staying with this assay, now noted: read-out: hTHP-1 IC50 in 10% FBS; hTHP-1 assay containing 10% fetal bovine serum, Table B4.
As to `CC(C)(O)c1csc(S(N)(=O)=NC(=O)Nc2c3c(cc4c2CCC4)CCC3)c1F` (single isomer, unassigned) [Example 880, (R) or (S)-3-fluoro-N′-((1,2,3,5,6,7-hexahydro-s-indacen-4-yl)carbamoyl)-4-(2-hydroxypropan-2-yl)thiophene-2-sulfonimidamide], the half-maximal inhibitory concentration (IC50) lay in the range of 40 to 200 nM.

For the compound `CC(C)(O)c1csc(S(N)(=O)=NC(=O)Nc2c3c(cc4c2CCC4)CCC3)c1F` (single isomer, unassigned) [Example 881, (S) or (R)-3-fluoro-N′-((1,2,3,5,6,7-hexahydro-s-indacen-4-yl)carbamoyl)-4-(2-hydroxypropan-2-yl)thiophene-2-sulfonimidamide], the IC50 lay within 5000 to 30000 nM.

Turning to `CC(C)(O)c1csc(S(N)(=O)=NC(=O)Nc2c3c(cc4c2CC4)CCC3)c1F` (single isomer, unassigned) [Example 882, (R) or (S)-3-fluoro-4-(2-hydroxypropan-2-yl)-N′-((2,4,5,6-tetrahydro-1H-cyclobuta[f]inden-3-yl)carbamoyl)thiophene-2-sulfonimidamide], the IC50 was in the range of 8 to 40 nM.

As for `CC(C)(O)c1csc(S(N)(=O)=NC(=O)Nc2c3c(cc4c2CC4)CCC3)c1F` (single isomer, unassigned) [Example 883, (S) or (R)-3-fluoro-4-(2-hydroxypropan-2-yl)-N′-((2,4,5,6-tetrahvdro-1H-cyclobuta[f]inden-3-yl)carbamoyl)thiophene-2-sulfonimidamide], the concentration for half-maximal inhibition (IC50) was in the range of 1000 to 5000 nM.

Another assay deals with IL-1β production in PMA-differentiated THP-1 cells. The assay can be described thus: IL-1β production in PMA-differentiated THP-1 cells stimulated with gramicidin (hTHP-1 assay, 2% fetal bovine serum; Procedures 1-3). It counts as cell-based, human. The following applies: hTHP-1 assay containing 2% fetal bovine serum, Table B2, class symbols; read-out: IC50. The method in brief: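 PMA-primed THP-1 cells (20 ng/ml PMA, 16-18 h) in RPMI with 2% FBS were pre-incubated with compounds for 1 h, from 100 μM downward in 3-fold steps (0.37% DMSO final), then stimulated with 5 μM gramicidin for 2 h. IL-1β in the supernatant was quantified by HTRF.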
With “(S)- and (R)-3-Fluoro-5-((methylamino)methyl)-N′-((2,4,5,6-tetrahydro-1H-cyclobuta[f]inden-3-yl)carbamoyl)thiophene-2-sulfonimidamide [Example 670]”, the 50% inhibitory concentration (IC50) fell in the range of 40 to 200 nM.

For the compound “(S)- and (R)-3-Fluoro-5-((methylamino)methyl)-N′-((2,4,5,6-tetrahydro-1H-cyclobuta[f]inden-3-yl)carbamoyl)thiophene-2-sulfonimidamide [Example 671]”, the concentration for half-maximal inhibition (IC50) lay within 1000 to 5000 nM.

Consider “N-(amino((R)-6-methoxy-6,7- dihydro-5H-pyrazolo[5,1- b][1,3]oxazin-3-yl)(oxo)-9,6- sulfaneylidene)-1,2,3,5,6,7- hexahydro-s-indacene-4-carboxamide [Example 472]”, for which the IC50 lay within 40 to 200 nM.
